Series [1] addresses T1, cloned human 5-HT6 receptor (Homo sapiens, UniProt P50406).
T1 construct: host or cells: HeLa cells, G-418 selection, membrane preparation
Description: 5-HT6 Receptor Binding Assay ([3H]-LSD radioligand, SPA). The settings on record: read-out: 5HT6 % inh @ 1 uM. In short, it runs like this:
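Membranes from HeLa cells expressing cloned human 5-HT6 receptor, mixed with WGA-coated SPA beads in 20 mM HEPES, 10 mM MgCl2, 150 mM NaCl, 1 mM EDTA pH 7.4 with [3H]-LSD; 1 h at room temperature. Eleven concentrations in duplicate; one-site fit IC50 converted to Ki by Cheng-Prusoff.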

T1 sequence (P50406 whole entry): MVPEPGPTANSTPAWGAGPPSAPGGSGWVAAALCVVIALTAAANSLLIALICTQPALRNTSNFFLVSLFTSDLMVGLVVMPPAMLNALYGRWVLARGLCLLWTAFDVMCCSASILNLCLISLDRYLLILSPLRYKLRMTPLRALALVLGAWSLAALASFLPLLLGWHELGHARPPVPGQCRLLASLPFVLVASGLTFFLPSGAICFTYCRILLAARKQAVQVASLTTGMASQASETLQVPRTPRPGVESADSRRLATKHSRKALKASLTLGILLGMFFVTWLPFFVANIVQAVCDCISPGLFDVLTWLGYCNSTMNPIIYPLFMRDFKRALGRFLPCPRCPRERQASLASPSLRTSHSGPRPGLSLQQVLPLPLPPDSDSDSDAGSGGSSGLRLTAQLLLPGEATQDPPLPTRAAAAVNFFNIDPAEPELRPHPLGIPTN

As a reminder, the melting point is the temperature of the solid-liquid transition. Turning to `CN1CCN(c2cccc(C(=O)N(C)Cc3cccc(Cl)c3)n2)CC1` [Example 71, 6-(4-Methyl-piperazin-1-yl)-pyridine-2-carboxylic acid (3-chloro-benzyl)-methyl-amide], the melting point fell in the range of 81 to 82 °C. The inhibition at 1 µM in series [1] was 87.1%.

Consider `COc1ccccc1CN(C)C(=O)c1cccc(N2CCN(C)CC2)n1` [Example 72, 6-(4-Methyl-piperazin-1-yl)-pyridine-2-carboxylic acid (2-methoxy-benzyl)-methyl-amide], for which the melting point lay within 75 to 76 °C. Further, the inhibition at 1 µM in series [1] was determined as 89.9%.

As to `Cc1cccc(CN(C)C(=O)c2cccc(N3CCN(C)CC3)n2)c1` [Example 73, 6-(4-Methyl-piperazin-1-yl)-pyridine-2-carboxylic acid methyl-(3-methyl-benzyl)-amide], the melting point was 101 to 102 °C. In addition, the inhibition at 1 µM in series [1] was 91.9%.

Take `CN1CCN(c2cccc(C(=O)N3CCC[C@H](Oc4cccc(F)c4)C3)n2)CC1` [Example 75, [(S)-3-(3-Fluoro-phenoxy)-piperidin-1-yl]-[6-(4-methyl-piperazin-1-yl)-pyridin-2-yl]-methanone]: the melting point lay in the range of 84 to 86 °C. Moreover, the inhibition at 1 µM in series [1] amounted to 97.3%.

On to `Cc1cccc(O[C@H]2CCCN(C(=O)c3cccc(N4CCN(C)CC4)n3)C2)c1` [Example 76, [6-(4-Methyl-piperazin-1-yl)-pyridin-2-yl]-((S)-3-m-tolyloxy-piperidin-1-yl)-methanone], for which the melting point lay within 73 to 75 °C. The inhibition at 1 µM in series [1] stood at 99%.

For `CN1CCN(c2cccc(C(=O)N3CCC[C@H](Oc4cccc(Cl)c4)C3)n2)CC1` [Example 77, [(S)-3-(3-Chloro-phenoxy)-piperidin-1-yl]-[6-(4-methyl-piperazin-1-yl)-pyridin-2-yl]-methanone], the melting point lay within 78 to 80 °C. The inhibition at 1 µM in series [1] came to 99.5%.

Regarding `CN1CCN(c2cccc(S(=O)(=O)N3CCCCC3c3ccccc3F)n2)CC1` (stereo not drawn) [Example 79, 1-{6-[2-(2-Fluoro-phenyl)-piperidine-1-sulfonyl]-pyridin-2-yl}-4-methyl-piperazine], the melting point fell in the range of 195.3 to 196.4 °C. Further, the inhibition at 1 µM in series [1] came out at 90.2%.

For `CN1CCCN(c2cccc(C(=O)N3CCCC[C@@H]3c3cccc(F)c3)n2)CC1` [Example 80, [(R)-2-(3-Fluoro-phenyl)-piperidin-1-yl]-[6-(4-methyl-[1,4]diazepan-1-yl)-pyridin-2-yl]-methanone], the melting point is 155 to 156.2 °C. Besides, the inhibition at 1 µM in series [1] worked out at 91.7%.

`CN1CCCN(c2cccc(C(=O)N3CCC[C@H](Oc4cccc(F)c4)C3)n2)CC1` [Example 85, [(S)-3-(3-Fluoro-phenoxy)-piperidin-1-yl]-[6-(4-methyl-[1,4]diazepan-1-yl)-pyridin-2-yl]-methanone] showed a melting point of 113 to 115 °C. For the same molecule, the inhibition at 1 µM in series [1] was determined as 99.1%.

As to `Cc1cccc(O[C@H]2CCCN(C(=O)c3cccc(N4CCCN(C)CC4)n3)C2)c1` [Example 86, [6-(4-Methyl-[1,4]diazepan-1-yl)-pyridin-2-yl]-((S)-3-m-tolyloxy-piperidin-1-yl)-methanone], the melting point is 118 to 120 °C. For the same molecule, the inhibition at 1 µM in series [1] came out at 99.5%.

In turn, `CN1CCCN(c2cccc(C(=O)N3CCC[C@H](Oc4cccc(Cl)c4)C3)n2)CC1` [Example 87, [(S)-3-(3-Chloro-phenoxy)-piperidin-1-yl]-[6-(4-methyl-[1,4]diazepan-1-yl)-pyridin-2-yl]-methanone] returned a melting point of 110 to 112 °C. For the same molecule, the inhibition at 1 µM in series [1] came out at 98.9%.

In turn, `CN1CCN(c2cccc(S(=O)(=O)N3CCC(c4ccccc4F)CC3)n2)CC1` [Example 88, 1-{6-[4-(2-Fluoro-phenyl)-piperidine-1-sulfonyl]-pyridin-2-yl}-4-methyl-piperazine] yielded a melting point of 240.5 to 242 °C. In addition, in series [1], the inhibition at 1 µM was found to be 102%.

`Cc1ccc(CN(C)C(=O)c2cccc(N3CCN(C)CC3)n2)cc1` [Example 90, 6-(4-Methyl-piperazin-1-yl)-pyridine-2-carboxylic acid methyl-(4-methyl-benzyl)-amide]: the melting point was 98 to 99 °C. Further, the inhibition at 1 µM in series [1] came out at 89.4%.

On to `CN1CCN(c2cccc(C(=O)N(C)Cc3ccccc3C(F)(F)F)n2)CC1` [Example 92, 6-(4-Methyl-piperazin-1-yl)-pyridine-2-carboxylic acid methyl-(2-trifluoromethyl-benzyl)-amide], for which the melting point was 199.5 to 200.6 °C. Further, the inhibition at 1 µM in series [1] is 83%.

The molecule `Cc1cccc([C@@H](C)N(C)C(=O)c2cccc(N3CCN(C)CC3)n2)c1` [Example 93, 6-(4-Methyl-piperazin-1-yl)-pyridine-2-carboxylic acid methyl-((R)-1-m-tolyl-ethyl)-amide] had a melting point of 126 to 128 °C. The inhibition at 1 µM in series [1] amounted to 99.4%.

Regarding `CN1CCC(c2cccc(C(=O)N3CCC(Oc4ccccc4Cl)CC3)n2)CC1` [Example 96, [4-(2-Chloro-phenoxy)-piperidin-1-yl]-(1′-methyl-1′,2′,3′,4′,5′,6′-hexahydro-[2,4′]bipyridinyl-6-yl)-methanone], the melting point fell in the range of 119 to 121 °C. Also, the inhibition at 1 µM in series [1] stood at 85.8%.

The molecule `CN1CC(c2cccc(C(=O)N3CCC(Oc4ccc(F)cc4)CC3)n2)C1` [Example 97, [4-(4-Fluoro-phenoxy)-piperidin-1-yl]-[6-(1-methyl-azetidin-3-yl)-pyridin-2-yl]-methanone] showed a melting point of 141.6 to 142.9 °C. Besides, in series [1], the inhibition at 1 µM was 79.6%.

Take `CN1CCN(c2cccc(C(=O)N3CCC(c4ccc(F)cc4F)CC3)n2)CC1` [Example 102, [4-(2,4-Difluoro-phenyl)-piperidin-1-yl]-[6-(4-methyl-piperazin-1-yl)-pyridin-2-yl]-methanone]: the melting point lay in the range of 148.6 to 149.5 °C. Further, in series [1], the inhibition at 1 µM was found to be 98.7%.

Consider `Cc1ccc(F)cc1C1CCN(C(=O)c2cccc(N3CCN(C)CC3)n2)CC1` [Example 103, [4-(5-Fluoro-2-methyl-phenyl)-piperidin-1-yl]-[6-(4-methyl-piperazin-1-yl)-pyridin-2-yl]-methanone], for which the melting point was 85.1 to 86.2 °C. The inhibition at 1 µM in series [1] worked out at 101%.

Molecule `Cc1c(F)cccc1C1CCN(C(=O)c2cccc(N3CCN(C)CC3)n2)CC1` [Example 104, [4-(3-Fluoro-2-methyl-phenyl)-piperidin-1-yl]-[6-(4-methyl-piperazin-1-yl)-pyridin-2-yl]-methanone] showed a melting point of 128.6 to 129.2 °C. Besides, in series [1], the inhibition at 1 µM came out at 101%.

As for `Cc1cc(F)ccc1C1CCN(C(=O)c2cccc(N3CCN(C)CC3)n2)CC1` [Example 105, [4-(4-Fluoro-2-methyl-phenyl)-piperidin-1-yl]-[6-(4-methyl-piperazin-1-yl)-pyridin-2-yl]-methanone], the melting point fell in the range of 156.4 to 157.7 °C. Further, in series [1], the inhibition at 1 µM turned out to be 97.6%.

`Cc1cc(F)ccc1C1CCN(C(=O)c2cccc(C3CCN(C)C3)n2)CC1` (stereo not drawn) [Example 106, [4-(4-Fluoro-2-methyl-phenyl)-piperidin-1-yl]-[6-(1-methyl-pyrrolidin-3-yl)-pyridin-2-yl]-methanone]: the melting point lay within 116.2 to 117.4 °C. In series [1], the inhibition at 1 µM stood at 93.6%.

`Cc1cccc(F)c1C1CCN(C(=O)c2cccc(C3CCN(C)C3)n2)CC1` (stereo not drawn) [Example 111, [4-(2-Fluoro-6-methyl-phenyl)-piperidin-1-yl]-[6-(1-methyl-pyrrolidin-3-yl)-pyridin-2-yl]-methanone] gave a melting point of 122.6 to 123.2 °C. Moreover, the inhibition at 1 µM in series [1] was 104%.

As for `Cc1ccc(F)cc1C1CCN(C(=O)c2cccc(C3CCN(C)C3)n2)CC1` (stereo not drawn) [Example 112, [4-(5-Fluoro-2-methyl-phenyl)-piperidin-1-yl]-[6-(1-methyl-pyrrolidin-3-yl)-pyridin-2-yl]-methanone], the melting point was 139.6 to 141.41 °C. For the same molecule, in series [1], the inhibition at 1 µM came out at 97.7%.

These data come from US20090197859A1 (Pfizer Inc., priority 2008, published 2009).
